Like-named read-outs stand apart in the source and are kept apart here.
Assays:
[1] = target: T1, rat GPR14 (U-II receptor) (Rattus norvegicus, UniProt P49684); test: Rat UII Calcium Mobilization FLIPR Assay; format: cell-based; settings: average value for the compound tested; read-out: Rat UII FLIPR Average IC50
T1 construct: expressed in transfected cells
T1 sequence (P49684 1-386): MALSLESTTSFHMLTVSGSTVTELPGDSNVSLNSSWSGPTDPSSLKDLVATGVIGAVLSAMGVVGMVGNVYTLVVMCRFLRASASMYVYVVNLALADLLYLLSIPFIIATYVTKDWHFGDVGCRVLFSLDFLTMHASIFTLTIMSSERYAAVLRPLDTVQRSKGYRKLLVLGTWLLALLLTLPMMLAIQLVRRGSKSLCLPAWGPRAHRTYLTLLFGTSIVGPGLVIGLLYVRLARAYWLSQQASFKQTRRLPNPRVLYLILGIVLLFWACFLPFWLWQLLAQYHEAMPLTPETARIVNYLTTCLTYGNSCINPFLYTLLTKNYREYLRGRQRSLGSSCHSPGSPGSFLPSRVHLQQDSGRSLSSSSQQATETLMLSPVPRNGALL
How it was run: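 Fluorescent calcium signals were recorded at room temperature (23° C) by FLIPR. Stable rat U-II receptor CHO lines had been dye-loaded for 1 h at 37° C in pH 7.4 HBSS containing 20 mM HEPES, 0.1% BSA and 2.5 mM probenecid.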

[2] = target: T2, Human UII receptor, 6D9 human rhabdomyosarcoma cells (Homo sapiens, UniProt Q9UKP6); test: Human UII Calcium Mobilization Assay; format: cell-based; settings: average value, FLIPR TETRA, read-out: Human UII Ca^+ Mobilization Average IC50
T2 construct: 6D9: isolated by dilution subcloning of RMS13 cells, ATCC® Number: CRL-2061; host or cells: 6D9 human rhabdomyosarcoma cells (subclone of RMS13)
T2 sequence (Q9UKP6 1-389): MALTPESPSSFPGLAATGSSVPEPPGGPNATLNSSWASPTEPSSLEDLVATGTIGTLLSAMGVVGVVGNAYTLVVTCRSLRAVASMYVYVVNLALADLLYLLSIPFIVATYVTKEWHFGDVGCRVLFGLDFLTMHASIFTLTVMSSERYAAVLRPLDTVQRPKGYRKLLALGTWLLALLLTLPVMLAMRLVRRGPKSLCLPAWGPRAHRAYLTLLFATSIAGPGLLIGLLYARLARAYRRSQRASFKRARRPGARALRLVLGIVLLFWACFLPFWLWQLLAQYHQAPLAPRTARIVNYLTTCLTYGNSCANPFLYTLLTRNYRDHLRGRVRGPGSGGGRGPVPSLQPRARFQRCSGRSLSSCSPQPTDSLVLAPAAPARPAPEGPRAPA
How it was run: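 FLIPR calcium responses were recorded for 4 minutes after room-temperature addition of test antagonist and U-II, in dye-loaded human 6D9 cells (37° C, 45 min; HBSS/HEPES with probenecid 1.25 mM). Compounds serially diluted in HBSS/HEPES, up to 0.1% DMSO; curves gave IC50 and EC50.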

[3] = target: T3, endogenous human UII receptor (Homo sapiens, UniProt Q9UKP6); test: Human Radioligand Binding Assay ((^125I)-U-II binding to human skeletal muscle myoblasts)
T3 sequence (Q9UKP6 1-389): T2 sequence (Q9UKP6 1-389)

[4] = read-out: Human UII Average Binding Ki, average value, (^125I)-U-II binding to human skeletal muscle myoblasts (HSMM), 25° C., 3 h

Structure (SMILES) | IC50 [1] | IC50 [2] | Ki [3] | Ki [3, 4]
COc1ccc(C(CCCNS(=O)(=O)c2ccccn2)N2C(=O)c3cccc(N4CCN([C@H](C)c5ccccc5)CC4)c3C2=O)cc1OC (stereo partly drawn) [Cpd 107, pyridine-2-sulfonic acid (4-(3,4-dimethoxy-phenyl)-4-{1,3-dioxo-4-[4-(1R)-(1-phenyl-ethyl)-piperazin-1-yl]-1,3-dihydro-isoindol-2-yl}-butyl)-amide] | 25 nM | 440 nM | 10 nM | 
COc1ccc([C@@H](CCCNC(C)=N)N2C(=O)c3cccc(N4CCN([C@H](C)c5ccccc5)CC4)c3C2=O)cc1OC [Cpd 166, (R)-N-(4-(3,4-dimethoxy-phenyl)-4-{1,3-dioxo-4-[4-(1R)-(1-phenyl-ethyl)-piperazin-1-yl]-1,3-dihydro-isoindol-2-yl}-butyl)-acetamidine] | 26 nM | 2600 nM | 510 nM | 
COc1ccc([C@H](CCCNS(=O)(=O)c2cccs2)N2C(=O)c3cccc(N4CCN([C@H](C)c5ccccc5)CC4)c3C2=O)cc1OC [Cpd 119] | 69 nM | 260 nM |  | 120 nM
COc1ccc([C@@H](CCCNC(=O)c2cnn(C)c2Cl)N2C(=O)c3cccc(N4CCN([C@H](C)c5ccccc5)CC4)c3C2=O)cc1OC [Cpd 183, (R)-5-chloro-1-methyl-1H-pyrazole-4-carboxylic acid (4-(3,4-dimethoxy-phenyl)-4-{1,3-dioxo-4-[4-(1R)-(1-phenyl-ethyl)-piperazin-1-yl]-1,3-dihydro-isoindol-2-yl}-butyl)-amide] | 19 nM | 1300 nM | 55 nM | 
COc1ccc(C(CCCNC(=O)c2cccs2)N2C(=O)c3cccc(N4CCN([C@H](C)c5ccccc5)CC4)c3C2=O)cc1OC (stereo partly drawn) [Cpd 104, thiophene-2-carboxylic acid (4-(3,4-dimethoxy-phenyl)-4-{1,3-dioxo-4-[4-(1R)-(1-phenyl-ethyl)-piperazin-1-yl]-1,3-dihydro-isoindol-2-yl}-butyl)-amide] | 53 nM | 170 nM | 120 nM | 
COc1ccc(C(CCCNS(=O)(=O)c2ccsc2)N2C(=O)c3cccc(N4CCN([C@H](C)c5ccccc5)CC4)c3C2=O)cc1OC (stereo partly drawn) [Cpd 105, thiophene-3-sulfonic acid (4-(3,4-dimethoxy-phenyl)-4-{1,3-dioxo-4-[4-(1R)-(1-phenyl-ethyl)-piperazin-1-yl]-1,3-dihydro-isoindol-2-yl}-butyl)-amide] | 68 nM | 110 nM | 65 nM | 
COc1ccc(C(CCCNS(=O)(=O)c2cccnc2)N2C(=O)c3cccc(N4CCN([C@H](C)c5ccccc5)CC4)c3C2=O)cc1OC (stereo partly drawn) [Cpd 106, pyridine-3-sulfonic acid (4-(3,4-dimethoxy-phenyl)-4-{1,3-dioxo-4-[4-(1R)-(1-phenyl-ethyl)-piperazin-1-yl]-1,3-dihydro-isoindol-2-yl}-butyl)-amide] | 16 nM | 230 nM | 80 nM | 
COc1ccc([C@@H](CCCNS(=O)(=O)c2cccs2)N2C(=O)c3cccc(N4CCNCC4)c3C2=O)cc1OC [Cpd 167, (R)-thiophene-2-sulfonic acid [4-(3,4-dimethoxy-phenyl)-4-(1,3-dioxo-4-piperazin-1-yl-1,3-dihydro-isoindol-2-yl)-butyl]-amide] | 40 nM | 500 nM |  | 150 nM
COc1ccc([C@@H](CCCNC(=O)c2cnoc2C)N2C(=O)c3cccc(N4CCN([C@H](C)c5ccccc5)CC4)c3C2=O)cc1OC [Cpd 144, (R)-5-methyl-isoxazole-4-carboxylic acid (4-(3,4-dimethoxy-phenyl)-4-{1,3-dioxo-4-[4-(1R)-(1-phenyl-ethyl)-piperazin-1-yl]-1,3-dihydro-isoindol-2-yl}-butyl)-amide] | 11 nM | 760 nM |  | 130 nM
COc1ccc(C(CCCNS(=O)(=O)c2cc(C)oc2C(F)(F)F)N2C(=O)c3cccc(N4CCN([C@H](C)c5ccccc5)CC4)c3C2=O)cc1OC (stereo partly drawn) [Cpd 89, 5-methyl-2-trifluoromethyl-furan-3-sulfonic acid (4-(3,4-dimethoxy-phenyl)-4-{1,3-dioxo-4-[4-(1R)-(1-phenyl-ethyl)-piperazin-1-yl]-1,3-dihydro-isoindol-2-yl}-butyl)-amide] | 540 nM | > 10000 nM | 890 nM | 
COc1ccc([C@@H](CCCNC(=N)N)N2C(=O)c3cccc(N4CCN([C@H](C)c5ccccc5)CC4)c3C2=O)cc1OC [Cpd 146, (R)-N-(4-(3,4-dimethoxy-phenyl)-4-{1,3-dioxo-4-[4-(1R)-(1-phenyl-ethyl)-piperazin-1-yl]-1,3-dihydro-isoindol-2-yl}-butyl)-guanidine] | 29 nM | 2700 nM | 640 nM | 
COc1ccc([C@@H](CCCNC(=O)c2csc(C)n2)N2C(=O)c3cccc(N4CCN([C@H](C)c5ccccc5)CC4)c3C2=O)cc1OC [Cpd 156, (R)-2-methyl-thiazole-4-carboxylic acid (4-(3,4-dimethoxy-phenyl)-4-{1,3-dioxo-4-[4-(1R)-(1-phenyl-ethyl)-piperazin-1-yl]-1,3-dihydro-isoindol-2-yl}-butyl)-amide] | 35 nM | 490 nM | 84 nM | 

The remaining compounds from weak to strong by IC50 [1], led by results:

IC50 [1] | IC50 [2] | Ki [3] | Structure (SMILES) | Ki [3, 4]
11 nM | 800 nM | 66 nM | COc1ccc([C@@H](CCCNC(=O)C2CCOC2)N2C(=O)c3cccc(N4CCN([C@H](C)c5ccccc5)CC4)c3C2=O)cc1OC (stereo partly drawn) [Cpd 173, (R)-tetrahydro-furan-3-carboxylic acid (4-(3,4-dimethoxy-phenyl)-4-{1,3-dioxo-4-[4-(1R)-(1-phenyl-ethyl)-piperazin-1-yl]-1,3-dihydro-isoindol-2-yl}-butyl)-amide] | 
9.6 nM | 580 nM | 40 nM | CCOCC(=O)NCCC[C@H](c1ccc(OC)c(OC)c1)N1C(=O)c2cccc(N3CCN([C@H](C)c4ccccc4)CC3)c2C1=O [Cpd 182, (R)-N-(4-(3,4-dimethoxy-phenyl)-4-{1,3-dioxo-4-[4-(1R)-(1-phenyl-ethyl)-piperazin-1-yl]-1,3-dihydro-isoindol-2-yl}-butyl)-2-ethoxy-acetamide] | 
9.4 nM | 400 nM | 45 nM | COc1ccc([C@@H](CCCNC(=O)C2CCCO2)N2C(=O)c3cccc(N4CCN([C@H](C)c5ccccc5)CC4)c3C2=O)cc1OC (stereo partly drawn) [Cpd 155, (R)-tetrahydro-furan-2-carboxylic acid (4-(3,4-dimethoxy-phenyl)-4-{1,3-dioxo-4-[4-(1R)-(1-phenyl-ethyl)-piperazin-1-yl]-1,3-dihydro-isoindol-2-yl}-butyl)-amide] | 
9.3 nM | 160 nM | 27 nM | COc1ccc([C@@H](CCCNC(=O)C(C#N)C(C)=O)N2C(=O)c3cccc(N4CCN([C@H](C)c5ccccc5)CC4)c3C2=O)cc1OC (stereo partly drawn) [Cpd 199, (R)-2-cyano-N-(4-(3,4-dimethoxy-phenyl)-4-{1,3-dioxo-4-[4-(1R)-(1-phenyl-ethyl)-piperazin-1-yl]-1,3-dihydro-isoindol-2-yl}-butyl)-3-oxo-butyramide] | 
8.6 nM | 1100 nM | 57 nM | CCOCCC(=O)NCCC[C@H](c1ccc(OC)c(OC)c1)N1C(=O)c2cccc(N3CCN([C@H](C)c4ccccc4)CC3)c2C1=O [Cpd 189, (R)-N-(4-(3,4-dimethoxy-phenyl)-4-{1,3-dioxo-4-[4-(1R)-(1-phenyl-ethyl)-piperazin-1-yl]-1,3-dihydro-isoindol-2-yl}-butyl)-3-ethoxy-propionamide] | 

Reference: patent US8193191B2, “Urotensin II receptor antagonists” (Janssen Pharmaceutica N.V., priority 2006, dated 2012)
